From patent publication US5173510A, “Simplified thioester and isostere analogs of oleoyl coenzyme A as hypocholesterolemic agents” (American Cyanamid Company, priority 1991, dated 1992) come the findings set out here.

By pIC50 is commonly meant the IC50 on a negative log10 scale, so that one unit is a factor of ten. Low readings indicate a large IC50, high ones a small IC50.

pIC50: −log10 of the molar value.

In one assay the target is T1, acyl coenzyme A: cholesterol O-acyltransferase (ACAT) (Oryctolagus cuniculus, UniProt G1SFD9).
T1 construct: The microsomal fraction was isolated by centrifugation and stored frozen; from tissue; host or cells: jejunal mucosa microsomes of New Zealand white rabbits
T1 sequence (G1SFD9 1-524): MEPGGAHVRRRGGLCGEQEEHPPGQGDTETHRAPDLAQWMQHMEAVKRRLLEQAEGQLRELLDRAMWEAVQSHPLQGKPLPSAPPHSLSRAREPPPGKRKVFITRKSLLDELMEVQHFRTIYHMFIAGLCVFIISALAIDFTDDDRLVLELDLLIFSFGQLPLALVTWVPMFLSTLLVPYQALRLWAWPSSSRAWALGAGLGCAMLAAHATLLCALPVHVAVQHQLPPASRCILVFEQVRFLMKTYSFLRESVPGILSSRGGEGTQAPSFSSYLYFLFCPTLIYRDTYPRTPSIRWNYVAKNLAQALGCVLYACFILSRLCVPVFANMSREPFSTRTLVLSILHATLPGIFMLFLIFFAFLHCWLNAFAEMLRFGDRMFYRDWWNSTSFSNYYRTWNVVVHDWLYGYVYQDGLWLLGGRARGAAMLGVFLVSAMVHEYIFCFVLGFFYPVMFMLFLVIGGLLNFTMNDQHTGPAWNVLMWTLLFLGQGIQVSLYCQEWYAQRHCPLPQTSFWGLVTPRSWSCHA
Put plainly: Inhibition of ACAT catalyzed formation of cholesterol oleate from endogenous cholesterol and exogenous 14C oleate. It is filed as biochemical, New Zealand white rabbits. Particulars: concentration at which 50% of the cholesterol esterification reaction is inhibited; rabbit jejunum mucosa microsomal fraction. The procedure: The compounds of this invention were tested for their ability to inhibit the acyl coenzyme A: cholesterol O-acyltransferase (ACAT) catalyzed formation of cholesterol oleate from endogenous cholesterol and exogenous ^14 C oleate.
The mucosa from the Jejunum of New Zealand white rabbits was removed by scraping with a spatula and homogenized in a solution containing 0.25M sucrose, 1 mM EDTA, 1 mM dithiothreitol and 5 mM of potassium phosphate (pH 7.4). The microsomal fraction was isolated by centrifugation and stored frozen at -70° C. in sucrose buffer (3 mg protein/ml) until use. The ACAT reaction was assayed using the method of S. Hashimoto, et al., Life Science 12, 1 (1973). The test compounds were dissolved in methanol at concentrations such that the addition of 0.003 ml in a reaction volume of 0.5 ml gave the final desired concentration.
Referring to the table, IC50 indicates the concentration of the compound at which 50% of the cholesterol esterfication reaction is inhibited. […] As can be observed from the table, the compounds of the present invention are very potent inhibitors of the ACAT enzyme catalyzed reaction. […] In view of the results presented in the table, these compounds are useful for controlling and reducing the cholesteryl ester content of mammalian arterial walls and decreasing the accumulation and storage of cholesterol in the arterial walls of mammals. Further, the compounds of this invention may inhibit the formation or development of atherosclerotic lesions in mammals.
In turn, `CCCCCCCC/C=C\CCCCCCCC(=O)SCCNC(C)=O` [Example 3, S-[2-(Acetylamino)ethyl]-9(Z)-octadecenethioic acid] showed a pIC50 of less than 4.00.
The compound `CCCCCCCC/C=C\CCCCCCCC(=O)SCCNC(=O)CCNC(C)=O` [Example 6, S-[2-[[3-(Acetylamino)-1-oxopropyl]amino]ethyl]-9(Z)-octadecenethioate] had a negative-log IC50 (pIC50) of less than 4.00.
Turning to `CCCCCCCC/C=C\CCCCCCCC(=O)SCCNC(=O)CCNC(=O)[C@H](O)C(C)(C)CO` [Example 10, S-[2-[[3-[(2,4-Dihydroxy-3,3-dimethyl-1-oxobutyl)amino]-1-oxopropyl]amino]ethyl]-9(Z)octadecenethioic acid], the pIC50 was 3.99.
`CCCCCCCC/C=C\CCCCCCCC(=O)OCCNC(C)=O` [Example 11] gave a negative-log IC50 (pIC50) of less than 4.00.
With `CCCCCCCC/C=C\CCCCCCCC(=O)OCCNC(=O)CCNC(C)=O` [Example 13, 2-[[3-(Acetylamino)-1-oxopropyl]amino]ethyl-9(Z)-octadecenoate], the pIC50 is less than 3.82.
Same read-out and setting: under `CCCCCCCC/C=C\CCCCCCCC(=O)OCCNC(=O)CCNC(=O)C(O)C(C)(C)CO` (stereo not drawn) [Example 17, 2-[[3-[(2,4-Dihydroxy-3,3-dimethyl-1-oxo-butyl)amino]-1-oxopropyl]amino]ethyl-9(Z)-octadecenoate] stands 4.11; under `CCCCCCCC/C=C\CCCCCCCC(=O)NCCNC(C)=O` [Example 18, N-[2-(Acetylamino)ethyl]-9(Z)-octadecenamide], 4.41; under `CCCCCCCC/C=C\CCCCCCCC(=O)NCCNC(=O)CCNC(C)=O` [Example 22, N-[2-[[3-(Acetylamino)-1-oxopropyl]amino]ethyl]-9(Z)-octadecenamide], less than 4.00.
Same read-out and setting: under `CCCCCCCC/C=C\CCCCCCCC(=O)NCCNC(=O)CCNC(=O)C1OC(C)(C)OCC1(C)C` (stereo not drawn) [Example 25, 2,2,5,5-Tetramethyl-N-[3-oxo-3-[[2-[(1-oxo-9(Z)-octadecenyl)amino]ethyl]amino]propyl]-1,3-dioxane-4-carboxamide] stands 5.92; under `CCCCCCCC/C=C\CCCCCCCC(=O)NCCNC(=O)CCNC(=O)C(O)C(C)(C)CO` (stereo not drawn) [Example 26, N-[2-[[3-[(2,4-Dihydroxy-3,3-dimethyl-1-oxo-butyl)amino]-1-oxopropyl]amino]ethyl]-9(Z)-octadecenamide], 5.48; under `CCCCCCCC/C=C\CCCCCCCC(O)CCCNC(C)=O` (stereo not drawn) [Example 31], 4.33.
Same read-out and setting: then `CCCCCCCC/C=C\CCCCCCCC(=O)CCCNC(C)=O` [Example 32], with 4.18.
`CCCCCCCC/C=C\CCCCCCCC(O)CCCNC(=O)CCNC(C)=O` (stereo not drawn) [Example 33, 3-(Acetylamino)-N-(4-hydroxy-12(Z)-heneicosenyl)propanamide] had a pIC50 of 3.97.
With `CCCCCCCC/C=C\CCCCCCCC(=O)CCCNC(=O)CCNC(C)=O` [Example 34, 3-(Acetylamino)-N-(4-oxo-12(Z)-heneicosenyl)propanamide], the pIC50 was 3.95.
As to `CCCCCCCC/C=C\CCCCCCCC(=O)CCCNC(=O)CCNC(=O)C(O)C(C)(C)CO` (stereo not drawn) [Example 37, 2,4-Dihydroxy-2,2-dimethyl-N-[3-oxo-3-[(4-oxo-12(Z)-heneicosenyl)amino]propyl]butanamide], the negative logarithm of the IC50 (pIC50) was 4.00.
For `CCCCCCCC/C=C\CCCCCCCC(O)CCCNC(=O)CCNC(=O)C(O)C(C)(C)CO` (stereo not drawn) [Example 38, 2,4-Dihydroxy-N-[3-[(4-hydroxy-12(Z)-heneicosyl)amino]-3-oxopropyl]-3,3-dimethylbutanamide], the pIC50 is 4.24.

Still in this assay, the particulars now being: summary statement on Table I.
For the compound `CCCCCCCC/C=C\CCCCCCCC(=O)NCCNC(=O)CCNC(=O)C1OC(C)(C)OCC1(C)C` (stereo not drawn) [Example 25, 2,2,5,5-Tetramethyl-N-[3-oxo-3-[[2-[(1-oxo-9(Z)-octadecenyl)amino]ethyl]amino]propyl]-1,3-dioxane-4-carboxamide], the “potency as inhibitors of the ACAT enzyme catalyzed reaction (in words)” value is given as “most potent”.
Regarding `CCCCCCCC/C=C\CCCCCCCC(=O)NCCNC(=O)CCNC(=O)C(O)C(C)(C)CO` (stereo not drawn) [Example 26, N-[2-[[3-[(2,4-Dihydroxy-3,3-dimethyl-1-oxo-butyl)amino]-1-oxopropyl]amino]ethyl]-9(Z)-octadecenamide], the “potency as inhibitors of the ACAT enzyme catalyzed reaction (in words)” value was “most potent”.
